Measurements: US7799913B2, “Carbonylbenzoxazine compounds for enhancing glutamatergic synaptic responses” (Cortex Pharmaceuticals, Inc., priority 2001, dated 2010)

Assays:
AMPA receptors = assay: field EPSP amplitude in field CA1 of rat hippocampal slice; assay type: cell-based; conditions: rat hippocampal slice
Text: The field EPSP, (excitatory post-synaptic potential) recorded in field CA1 after stimulation of CA3 axons is known to be mediated by AMPA receptors, which are present in the synapses (Kessler et al., Brain Res. 560: 337-341 (1991)). Drugs that selectively block the receptor selectively block the field EPSP (Muller et al., Science, supra). […] These effects are mirrored in the field EPSP (see, for example, Staubli et al., Psychobiology, supra; Xiao et al., Hippocampus, supra; Staubli et al., Hippocampus 2: 4958 (1992)).
To obtain the data shown in Table I, a bipolar nichrome stimulating electrode was positioned in the dendritic layer (stratum radiatum) of the hippocampal subfield CA1 close to the border of subfield CA3, as described in Example 64. Current pulses (0.1 msec) through the stimulating electrode activate a population of the Schaffer-commissural (SC) fibers, which arise from neurons in the subdivision CA3 and terminate in synapses on the dendrites of CA1 neurons. Activation of these synapses causes them to release the transmitter glutamate. Glutamate binds to post-synaptic AMPA receptors, which then transiently open an associated ion channel and permit a sodium current to enter the postsynaptic cell. This current results in a voltage in the extracellular space (the field EPSP), which is recorded by a high impedance recording electrode positioned in the middle of the stratum radiatum of CA1.
The intensity of the stimulation current was adjusted to produce half-maximal EPSPs (typically about 1.5-2.0 mV). Paired stimulation pulses were given every 40 sec with an interpulse interval of 200 msec, as described further in Example 64.
Hippocampal slices were maintained in a recording chamber continuously perfused with artificial cerebrospinal fluid (ACSF). During 15-30 minute intervals, the perfusion medium was switched to one containing various concentrations of the test compounds. Responses collected immediately before and at the end of drug perfusion were superimposed in order to calculate the percent increase in EPSP amplitude.
(§1) The physiological effects of invention compounds were tested in vitro on primary cultures of rat cortical neurons as described by Hamill, O P, et al. in Pflügers Arch 391: 85-100 (1981) or on slices of rat hippocampus according to the following procedure. Excitatory responses (field EPSPs) were measured in hippocampal slices, which were maintained in a recording chamber continuously perfused with artificial cerebrospinal fluid (ACSF). During a 15-30 minute interval, the perfusion medium was switched to one containing various concentrations of the test compounds. Responses collected immediately before and at the end of drug perfusion were superimposed in order to calculate the percent increase in EPSP amplitude.
To conduct these tests, the hippocampus was removed from anesthetized, 2 month old Sprague-Dawley rats and in vitro slices (400 μm thick) were prepared and maintained in an interface chamber at 35° C. using conventional techniques [see, for example, Dunwiddie and Lynch, J. Physiol. 276: 353-367 (1978)]. The chamber was constantly perfused at 0.5 mL/min with ACSF containing (in mM): NaCl 124, KCl 3, KH2PO4 1.25, MgSO4 2.5, CaCl2 3.4, NaHCO3 26, glucose 10 and L-ascorbate 2. A bipolar nichrome stimulating electrode was positioned in the dendritic layer (stratum radiatum) of the hippocampal subfield CA1 close to the border of subfield CA3.
Current pulses (0.1 msec) through the stimulating electrode activate a population of the Schaffer-commissural (SC) fibers, which arise from neurons in the subdivision CA3 and terminate in synapses on the dendrites of CA1 neurons. Activation of these synapses causes them to release the transmitter glutamate. Glutamate binds to the post-synaptic AMPA receptors, which then transiently open an associated ion channel and permit a sodium current to enter the postsynaptic cell. […]

AMPA receptor = assay: steady-state current induced by glutamate in cortical neurons in primary culture; assay type: cell-based, rat; conditions: 300 μM glutamate on cultured neurons
Experimental: as §1

Row | Compound | AMP: concentration of modulator that increases the amplitude of the fEPSP by 10% (AMPA receptors) [µM] | EC2X: concentration of modulator required to double the steady state current (AMPA receptor) [µM] | melting point
1 | CC1CCN(C(=O)c2ccc3c(c2)OC2CCCN2C3=O)CC1 (racemic) [Example 18, (R,S)-6-[(4-methylpiperidyl)carbonyl]-3aH-benzo[e]pyrrolidino[2,1-b]1,3-oxazin-9-one] | 100 | 4 | 
2 | O=C1c2cc3c(cc2OCN1CCCN1CCOCC1)C(=O)N1CCCC1O3 (racemic) [Example 32, (R,S)-3-(3-morpholin-4-ylpropyl)-2H,6aH-pyrrolidino [2″,1″-3′,2′]1,3-oxazino[5′,6′-4,5]benzo[e]1,3-oxazaperhydroine-4,10-dione] |  |  | 153 to 155 °C
3 | O=C1c2cc3c(cc2OCN1C1CCCC1)C(=O)N1CCCC1O3 (racemic) [Example 26, (R,S)-3-cyclopentyl-2H,6aH-pyrrolidino[2″,1″-3′,2′]1,3-oxazino[5′,6′-4,5]benzo[e]1,3-oxazaperhydroine-4,10-dione] |  |  | 184 to 188 °C
4 | O=C1c2cc3c(cc2OCN1CC(F)(F)F)C(=O)N1CCCC1O3 (racemic) [Example 29, (R,S)-3-(2,2,2-trifluoroethyl)-2H,6aH-pyrrolidino[2″,1″-3′,2′]1,3-oxazino[5′,6′-4,5]benzo[e]1,3-oxazaperhydroine-4,10-dione] |  |  | 179 to 180 °C
5 | O=C1c2cc3nc4n(c(=O)c3cc2OC2CCCN12)CCC4 (racemic) [Example 6, (R,S)-6a-hydro-3aH-pyrrolidino[2,1-b]pyrrolidino[2′,1′-2,3]quinazolino[7,6-e]1,3-oxazaperhydroine-6,12-dione] | 100 | 1.4 | 
6 | O=C(c1ccc2c(c1)OC1CCCN1C2=O)N1CCCCC1 (racemic) [Example 5, (R,S)-6-(Piperidylcarbonyl)-3aH-benzo[e]pyrrolidino[2,1-b]1,3-oxazaperhydroin-9-one] | 10 | 2 | 
7 | CCCN1COc2cc3c(cc2C1=O)OC1CCCN1C3=O (racemic) [Example 24, (R,S)-3-propyl-2H,6aH-pyrrolidino[2″,1″-3′,2′]1,3-oxazino[5′,6′-4,5]benzo[e]1,3-oxazaperhydroine-4,10-dione] |  |  | 153 to 154 °C
8 | CN1COc2cc3c(cc2C1=O)OC1CCCN1C3=O (racemic) [Example 22, (R,S)-3-methyl-2H,6aH-pyrrolidino[2″,1″-3′,2′]1,3-oxazino[5′,6′-4,5]benzo[e]1,3-oxazaperhydroine-4,10-dione] | 10 | 0.2 | 195 to 196 °C
9 | O=C1CCCN1CCCN1COc2cc3c(cc2C1=O)OC1CCCN1C3=O (racemic) [Example 27, (R,S)-3-[3-(2-oxopyrrolidinyl)propyl]-2H,6aH-pyrrolidino[2″,1″-3′,2′]1,3-oxazino[5′,6′-4,5]benzo[e]1,3-oxazaperhydroine-4,10-dione] | 10 | 1 | 189 to 190 °C
10 | O=C1c2cc3c(cc2OCN1Cc1ccc2c(c1)OCO2)C(=O)N1CCCC1O3 (racemic) [Example 28, (R,S)-3-(2H-benzo[d]1,3-dioxolen-5-ylmethyl)-2H,6aH-pyrrolidino[2″,1″-3′,2′]1,3-oxazino[5′,6′-4,5]benzo[e]1,3-oxazaperhydroine-4,10-dione] | 10 | 6 | 
11 | O=C1c2cc3c(cc2OC2CCCN12)C(=O)N1OCCC1O3 [Example 46, (R,S), (R,S)-2H,3H,3aH,9aH--1,2-oxazolidino[3,2-b]pyrrolidino[2″,1″-3′,2′](1,3-oxazino)[5′,6′-5,4]benzo[e]1,3-oxazaperhydroine-6,12-dione] | 3 | 2.4 | 
12 | O=C1c2cc3c(cc2OC2CCCN12)C(=O)N1CCOC1O3 [Example 11, (R,S), (R,S)-2H,3H,12aH,6aH-1,3-oxazolidino[2,3-b]pyrrolidino[2″,1″-2′,3′](1,3-oxazino)[5′,6′-2,1]benzo[4,5-e]1,3-oxazaperhydroine-4,10-dione] | 1 | 0.09 | 
13 | O=C(CN1COc2cc3c(cc2C1=O)OC1CCCN1C3=O)N1CCCC1 (racemic) [Example 34, (R,S)-3-(2-oxo-2-pyrrolidinylethyl)-2H,6aH-pyrrolidin[2″,1″-3′,2′]1,3-oxazino[5′,6′-4,5]benzo[e]1,3-oxazaperhydroine-4,10-dione] |  |  | 257 to 259 °C
14 | CCN1COc2cc3c(cc2C1=O)OCN(CC)C3=O [Example 21, 3,8-diethyl-2H,7H-1,3-oxazaperhydroino[5′,6′-4,5]benzo[e]1,3-oxazine-4,9-dione] | 10 | 1.8 | 236 to 237 °C
15 | CCN1COc2cc3c(cc2C1=O)OC1CCCN1C3=O (racemic) [Example 23, (R,S)-3-ethyl-2H,6aH-pyrrolidino[2″,1″-3′,2′]1,3-oxazino[5′,6′-4,5]benzo[e]1,3-oxazaperhydroine-4,10-dione] |  |  | 197 to 198 °C
16 | COC(=O)CN1COc2cc3c(cc2C1=O)OC1CCCN1C3=O (racemic) [Example 33, (R,S)-methyl 2-(4,10-dioxo-2H,6aH-pyrrolidino[2″,1″-3′,2′]1,3-oxazino[5′,6′-4,5]benzo[e]1,3-oxazaperhydroin-3-yl)acetate] |  |  | 161 to 162 °C
17 | O=C1c2cc3c(cc2OCN1CCO)C(=O)N(CCO)CO3 [Example 59, 3,8-bis(2-hydroxyethyl)-2H,7H-1,3-oxazaperhydroino[5′,6′-4,5]benzo[e]1,3-oxazine-4,9-dione] |  |  | 237 to 238 °C
18 | O=C1NCOc2cc3c(cc21)OC1CCCN1C3=O (racemic) [Example 58, (R,S)-2H,3H,6aH-pyrrolidino[2″,1″-3′,2′]1,3-oxazino[5′,6′-4,5]benzo[e]1,3-oxazaperhydroine-4,10-dione] |  |  | 270 to 275 °C (dec.)
19 | O=C1c2cc3c(cc2OCC1CO)C(=O)N1CCCC1O3 [Example 20, (R,S),(R,S)-3-(hydroxymethyl)-6aH-chromano[7,6-e]pyrrolidino[2,1-b]1,3-oxazine-4,10-dione] |  |  | 189 to 190 °C
20 | CC(C)N1COc2cc3c(cc2C1=O)OC1CCCN1C3=O (racemic) [Example 25, (R,S)-3-(methylethyl)-2H,6aH-pyrrolidino[2″,1″-3′,2′]1,3-oxazino[5′,6′-4,5]benzo[e]1,3-oxazaperhydroine-4,10-dione] |  |  | 204 to 205 °C
21 | O=C1c2cc3c(cc2OC2CCCN12)OC1CCCN1C3=O [Example 2, (R,S), (R,S)-3aH,6aH-pyrrolidino[2,1-b]pyrrolidino[2″,1″-3′,2′](1,3-oxazino)[6′,5′-2,1]benzo[4,5-e]1,3-oxazaperhydroine-10,12-dione] | >10 | 2.6 | 
22 | CCN1COc2cc(C(=O)C3CCCCC3)ccc2C1=O [Example 38, 7-(cyclohexylcarbonyl)-3-ethyl-2H-benzo[e]1,3-oxazaperhydroin-4-one] | 30 | 15 | 
